Where two headings read alike, the source gives them in different places.
Columns and labels:
[1] = Description: Brain uptake of a compound with low blood-brain barrier (BBB) penetration ^11C-choline, was applied by the device of the present application (refers also as SipNose). 33.2 μCi/5.3 μmol (approx. 0.551 mg) of ^11C-choline was applied by the device of the present application to a 381 gm rat. A 45 min. dynamic PET scan was performed followed by a CT scan.
It should be noted that in the above mentioned examples, the compressed gas is in volumes of about 15 ml and compressed to about 7 bar.
Comparison of brain uptake of a compound with low blood-brain barrier (BBB) penetration, when applied to the nasal cavity with the device of the present application to deposition in the respiratory epithelium in the nasal cavity.
It should be noted that in the above mentioned examples, the compressed gas is in volumes of about 5 ml and compressed to about 4 bar.
Comparison of brain uptake of a compound with low blood-brain barrier (BBB) penetration, when applied with the present device versus intravenous (I/V) injection.
The data shown are the average of three trials for the present device, and the average of two trials for each of the I/V administration and the general nasal administration. The bar heights are relative to the brain concentration of ^11C choline after I/V administration.

[2] = Micro-PET-CT tissue absorption of F-DOPA, SipNose nasal application versus I/V administration; details: rat
Description: The objective of the experiment was to compare nasal application with SipNose device to a systemic application by IV administration of F-DOPA (that corresponds to the drug L-DOPA) by means of brain absorption (namely the target tissue) and systemic absorption (namely non relevant tissues contamination).
• Animals were anesthetized with a Ketamine-Xylazine cocktail. • Animals were treated according to the 2 groups as below: • 1. Systemic administration of F-DOPA by I/V injection of 1 ml. Administration doses were between 17 and 83 μg, and injected radioactivity dose was around 1000 μCi. • 2. Nasal application of F-DOPA by SipNose device application of 13-20 μl. Administration doses were between 1.2 and 2.8 μg, and injected radioactivity doses were around 26 μCi. All I/V administered animals and part of the Nasal applied animals (as will be indicated) were pre-treated with 10 mg/kg Carbidopa (by IP administration) 30 min prior to L-DOPA administration to eliminate peripheral conversion to dopamine. • Animals were subjected to Micro-PET-CT. PET scans were done for 45 min following L-DOPA administration by I/V or Nasal route. • Analysis of F-DOPA absorption in the following tissues was tested: • Brain, Heart, Lungs, liver.

[3] = Dye deposition in the olfactory epithelium following application with the present device; assay type: in vivo; details: rat, 15 microliter to one nostril with the present device, post mortem (FIG. 31B)
From the text: Methylene Blue solution (as in Example 1) was applied to the rat nose with the present device. 15 microliter was applied to one nostril and immediately after that the animal was sacrificed and the nasal and brain tissue were exposed to follow the dye deposition.

[4] = rat, injected intravenously (I/V)
[5] = rat, via the present device (FIG. 41)

In the case of `C[N+](C)(C)CCO` [^11C-choline], the “location of deposition in the nasal cavity” value ([1]; live rat, PET-CT scan, present device (FIG. 31A)) is reported as “concentrated at the olfactory epithelium”, the “brain uptake with the present device relative to I/V application” value ([1]; rat, FIG. 38B versus FIG. 37B) is reported as “more than 6 times” and the “uptake to the brain” value ([1]; rat, I/V injection (FIG. 39)) is reported as “less than 0.2 % of the administered dose”. For the same molecule, the “uptake to the brain” value ([1]; rat, SipNose nasal application, about 15 ml gas at about 7 bar, increasing gradually thereafter, 45 min dynamic PET scan) was 0.6 % ID/ml, the “uptake to the brain” value ([1]; rat, SipNose nasal application, about 15 ml gas at about 7 bar, very shortly following administration) was “about 0.5 % ID/ml” and the “brain uptake as share of the total drug administrated” value ([1]; rat, SipNose nasal application, corresponds to the % ID/ml values) was ~1.2%. The “uptake entering the brain” value ([1]; rat, applied with the present device (FIG. 38B)) was “more than 0.5 % ID/ml”, the locations of uptake ([1]; rat, applied with the present device (SipNose)) was “greatest in the olfactory epithelium and least in the lungs” and the locations of uptake ([1]; rat, applied with the present device (SipNose), listed as 11C choline) was “mainly to the olfactory epithelium”. For the same molecule, the “brain concentration relative to I/V administration” value ([1]; rat, general nasal application, average of two trials (FIG. 40)) was “the same or slightly more”, the locations of uptake [1, 4] was “mostly to the liver” and the “uptake to the brain” value [1, 4] was “about 0.1 % ID/ml”. For the same molecule, the “uptake of the radioactivity in the brain” value ([1]; rat, nasal application tuned to respiratory epithelium (about 5 ml, about 4 bar), no olfactory deposition, 45 minutes after activation) was “less than 0.1%”, the “uptake of the radioactivity in the pharynx” value ([1]; rat, nasal application tuned to respiratory epithelium (about 5 ml, about 4 bar), less than a minute after activation) was “more than 0.4%” and the “brain concentration relative to I/V administration” value ([1]; rat, present SipNose device, average of three trials (FIG. 40)) was “more than five times as great”. The “uptake to the brain” value ([1]; rat, present device (FIG. 39)) was “more than 1 % of the administered dose”, the “net uptake to non-olfactory brain tissues” value [1, 5] was “about 2.5 μg” and the “total uptake to the brain” value [1, 5] was ~6 µg. The “uptake to the olfactory bulbs” value [1, 5] was “about 3 μg”.
In the case of `N[C@@H](Cc1cc(O)c(O)cc1F)C(=O)O` [F-Dopa, F-DOPA], the “SipNose nasal application with versus without Carbidopa pre-treatment” value ([2]; 10 mg/kg Carbidopa IP 30 min prior) is reported as “same results whether a pre-treatment with Carbidopa was given or not”, the “brain concentrations, SipNose nasal application versus I/V” value ([2]; 22.5 min post treatment (t50 of the PET scan)) is reported as “comparable” and the “peripheral uptake compared to brain uptake” value ([2]; nasal application, heart, lungs, liver) is reported as “lower peripheral concentrations than the brain F-Dopa concentrations”. For the same molecule, the “percentage of absorption in peripheral tissues relative to brain absorption, nasal versus I/V” value ([2]; heart, lungs, liver) was “lower in the nasal treated animals than in the I/V treated animals”.
In the case of `CN(C)c1ccc2nc3ccc(=[N+](C)C)cc-3sc2c1` [Methylene Blue], the “location of dye deposition in the nasal cavity” value [3] is reported as “concentrated at the olfactory epithelium”.
